This note sets out measurements from article PMC6341602, “Cytosolic group IVA phospholipase A2 inhibitors, AVX001 and AVX002, ameliorate collagen-induced arthritis” (Arthritis Research & Therapy, 2019).

The experiment deals with T1, GIVA cPLA2 (cPLA2α) (Homo sapiens, UniProt P47712).
T1 construct: gene PLA2G4A
T1 sequence (P47712 1-749): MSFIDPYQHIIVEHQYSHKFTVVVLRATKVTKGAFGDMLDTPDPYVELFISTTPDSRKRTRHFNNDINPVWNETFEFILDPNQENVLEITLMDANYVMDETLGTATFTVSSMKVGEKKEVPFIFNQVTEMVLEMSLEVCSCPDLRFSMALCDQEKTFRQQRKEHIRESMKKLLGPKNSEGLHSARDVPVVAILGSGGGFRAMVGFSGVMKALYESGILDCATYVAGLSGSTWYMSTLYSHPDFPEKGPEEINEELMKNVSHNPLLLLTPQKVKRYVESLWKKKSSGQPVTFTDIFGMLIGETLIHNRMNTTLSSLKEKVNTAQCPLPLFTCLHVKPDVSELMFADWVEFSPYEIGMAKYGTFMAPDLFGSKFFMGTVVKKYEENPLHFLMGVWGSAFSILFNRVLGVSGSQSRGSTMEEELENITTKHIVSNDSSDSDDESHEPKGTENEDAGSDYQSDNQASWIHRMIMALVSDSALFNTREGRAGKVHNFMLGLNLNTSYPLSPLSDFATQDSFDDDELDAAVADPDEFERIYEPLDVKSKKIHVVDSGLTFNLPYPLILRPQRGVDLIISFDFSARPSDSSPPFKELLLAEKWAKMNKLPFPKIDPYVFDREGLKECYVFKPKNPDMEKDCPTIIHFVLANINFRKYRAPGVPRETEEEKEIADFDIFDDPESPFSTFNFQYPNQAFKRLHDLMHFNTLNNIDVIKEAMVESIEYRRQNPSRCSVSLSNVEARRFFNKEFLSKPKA
Description: in vitro mixed micelle modified Dole assay ([…]-PAPC). Type of experiment: biochemical.

For `CC/C=C\C/C=C\C/C=C\C/C=C\CC/C=C/CSCC(=O)C(F)(F)F` [AVX001, (6E,10Z,13Z,16Z,19Z)-1,1,1-trifluoro-4-thiadocosa-6,10,13,16,19-pentaen-2-one], the “In vitro enzyme activity / GIVA cPLA2 / XI(50)” value is 0.0072 ± 0.0007 mole fraction (XI(50)).

As for `CC/C=C\C/C=C\C/C=C\C/C=C\C/C=C\CCSCC(=O)C(F)(F)F` [AVX002, 1,1,1-trifluoro-3-(((3Z,6Z,9Z,12Z,15Z)-octadeca-3,6,9,12,15-pentaen-1-yl)thio)propan-2-one], the “In vitro enzyme activity / GIVA cPLA2 / XI(50)” value is given as 0.0057 ± 0.001 mole fraction (XI(50)).
